Experimental findings from US20140005103A1, “SULFONAMIDE DERIVATIVES AND METHODS OF USE THEREOF FOR IMPROVING THE PHARMACOKINETICS OF A DRUG” (Merck, Sharp & Dohme Corp., priority 2012, published 2014) are described below.

The target of series [1] is T1, CYP1A2 (Homo sapiens, UniProt P05177).
T1 construct: 0.1 mg/mL protein human liver microsomes (BD Gentest); tissue BD Gentest; host or cells: human liver microsomes
T1 sequence (P05177 1-516): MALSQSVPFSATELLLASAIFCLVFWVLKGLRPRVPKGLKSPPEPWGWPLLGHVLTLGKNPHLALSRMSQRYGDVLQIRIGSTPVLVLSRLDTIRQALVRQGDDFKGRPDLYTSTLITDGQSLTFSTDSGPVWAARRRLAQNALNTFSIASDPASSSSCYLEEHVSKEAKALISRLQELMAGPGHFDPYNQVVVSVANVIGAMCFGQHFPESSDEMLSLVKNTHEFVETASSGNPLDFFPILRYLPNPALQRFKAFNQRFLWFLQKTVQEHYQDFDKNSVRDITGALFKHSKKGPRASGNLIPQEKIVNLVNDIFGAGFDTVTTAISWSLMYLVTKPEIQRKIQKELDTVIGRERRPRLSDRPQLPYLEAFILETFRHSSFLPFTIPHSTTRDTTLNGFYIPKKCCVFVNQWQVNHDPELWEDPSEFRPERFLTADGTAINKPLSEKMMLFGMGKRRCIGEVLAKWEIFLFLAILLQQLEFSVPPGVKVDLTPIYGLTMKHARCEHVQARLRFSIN
Put plainly: Cocktail CYP assay, phenacetin O-deethylation. Format: in vitro ADME. To be noted: human liver microsomes, 10 μM phenacetin; test concentrations up to 10 μM. On the procedure: (§1) Determination of IC50 in a Cocktail Assay for CYPs 1A2, 2C9, 2C19, 2D6 and 3A4
(§2) This assay was performed in a standard 96-well plate design. IC50 values were calculated from the percent inhibition observed for each test compound at 6 concentrations (for example, 0.0032, 0.016, 0.08, 0.4, 2 and 10 μM). The incubation substrate mix contains 10 μM phenacetin (1A2), 5 μM diclofenac (2C9), 30 μM mephenyloin (2C19), 5 μM dextromethorphan (2D6) and 2 μM midazolam (3A4), 0.1 mg/mL protein human liver microsomes (BD Gentest), 1 mM NAPDH, 3.3 mM MgCl2 and 100 mM potassium phosphate buffer (pH 7.4). The production of the metabolite of each probe substrate was determined after incubation for 10 min at 37° C. Quantitation of the metabolite peak area ratio against an internal standard (tolbutamide) was determined by LC/MS/MS analysis following acetonitrile treatment of the incubations.
(§3) Samples were analyzed in the MRM mode with a SCIEX API-4000 mass spectrometer (Applied Biosystems, Foster City, Calif.), with a Shimadzu LC-20 AD pump (Shimadzu corporation, Kyoto, JP) and a CTC PAL autosampler (Agilent Technologies, Switzerland). A Phenomenex, Luna, […], 100 A, 2.00×30 mm HPLC column was used for the separation. The mobile phases were: (A) 0.1% formic acid in water and (B) 0.1% formic acid in acetonitrile. The binary gradient was as follows.
(§4) The peak area ratio of the analyte to the internal standard was used to quantify the metabolite. The values of peak area ratios in the presence of test compound were compared to those of maximum or minimum controls and were expressed as % inhibition by interpolating between the maximum and minimum peak area ratios. Incubations with no inhibitor were defined as the maxima.
(§5) The following equation was used to calculate the % inhibition:
(§6) [1−[(X−Low control)/(High control−Low control)]]*100
(§7) For the IC50 calculation, SigmaPlot was used to plot the mean % inhibition versus the test compound concentrations and for non-linear regression analysis of the data. Depending on the range of data points defining the inhibition curve, the data may have been fit to the 4-parameter logistic equation.
Background: Liver microsomes are vesicles of endoplasmic reticulum, rich in cytochrome P450 enzymes.

Series [2] has as its target CYP3A4 (Homo sapiens, UniProt P08684). In words: IC50 vs CYP3A by inhibition of lopinavir metabolism in human liver microsomes. Format: biochemical. The settings on record: pH 7.4, human liver microsomes, 1.5 μM lopinavir, 8 min at 37° C., test concentrations 0.098-100 nM, read-out: 3A4(LPV). On the procedure:
Determination of IC50 vs CYP3A by Measurement of Inhibition of Lopinavir Metabolism
This assay was performed in a standard 96-well plate design. IC50 values were calculated from the percent inhibition observed for each test compound at 6 concentrations (for example, 0.098, 0.391, 1.56, 6.25, 25 and 100 nM). The incubation substrate mix contains 1.5 μM lopinavir, 0.01 mg/mL protein human liver microsomes (BD Gentest), 1 mM NAPDH, 3.3 mM MgCl2 and 100 mM potassium phosphate buffer (pH 7.4). The production of the sum of three hydroxylated metabolites (M2: 6-hydroxy lopinavir, M3: 4-hydroxy lopinavir, M4: 4-hydroxy lopinavir (epimer of M3), Kumar et al., 1999) was determined after incubation for 8 min at 37° C. Quantitation of the metabolite peak area ratio against an internal standard (tolbutamide) was determined by LC/MS/MS analysis following acetonitrile treatment of the incubations.
Samples were analyzed in the MRM mode with a SCIEX API-4000 mass spectrometer (Applied Biosystems, Foster City, Calif.), with a Shimadzu LC-20 AD pump (Shimadzu corporation, Kyoto, JP) and a CTC PAL autosampler (Agilent Technologies, Switzerland). A Phenomenex, Luna, 5 μm, 100 A, 2.00×30 mm HPLC column was used for the separation. The mobile phases were: (A) 0.1% formic acid in water and (B) 0.1% formic acid in acetonitrile. The binary gradient was as follows.
The peak area ratio of the analyte to the internal standard was used to quantify the metabolite. The values of peak area ratios in the presence of test compound were compared to those of maximum or minimum controls and were expressed as % inhibition by interpolating between the maximum and minimum peak area ratios. Incubations with no inhibitor were defined as the maxima and with 5 μM ketoconazole were defined as the minima
as §5, §6, §7

Series [3] concerns the target T2, CYP2C19 (Homo sapiens, UniProt P33261).
T2 construct: 0.1 mg/mL protein human liver microsomes (BD Gentest); tissue BD Gentest; host or cells: human liver microsomes
In words: Cocktail CYP assay, mephenytoin 4'-hydroxylation. Format: in vitro ADME. To be noted: human liver microsomes, 30 μM mephenytoin; test concentrations up to 10 μM. Here is the method: as §1, §2, §3, §4, §5, §6, §7

The target in series [4] is T3, CYP2D6 (Homo sapiens, UniProt P10635).
T3 construct: 0.1 mg/mL protein human liver microsomes (BD Gentest); tissue BD Gentest; host or cells: human liver microsomes
Put plainly: Cocktail CYP assay, dextromethorphan O-demethylation. Format: in vitro ADME. To be noted: human liver microsomes, 5 μM dextromethorphan; test concentrations up to 10 μM. On the procedure:
as §1, §2, §3, §4, §5, §6, §7

The target of series [5] is T4, CYP2C9 (Homo sapiens, UniProt P11712).
T4 construct: 0.1 mg/mL protein human liver microsomes (BD Gentest); tissue BD Gentest; host or cells: human liver microsomes
Put plainly: Cocktail CYP assay, diclofenac 4'-hydroxylation. Format: in vitro ADME. The settings on record: human liver microsomes, 5 μM diclofenac; test concentrations up to 10 μM. Here is the method: as §1, §2, §3, §4, §5, §6, §7

The target of series [6] is T5, human CYP11B1 (Homo sapiens, UniProt P15538).
T5 construct: expressed in transfected cells
T5 sequence (P15538 25-503): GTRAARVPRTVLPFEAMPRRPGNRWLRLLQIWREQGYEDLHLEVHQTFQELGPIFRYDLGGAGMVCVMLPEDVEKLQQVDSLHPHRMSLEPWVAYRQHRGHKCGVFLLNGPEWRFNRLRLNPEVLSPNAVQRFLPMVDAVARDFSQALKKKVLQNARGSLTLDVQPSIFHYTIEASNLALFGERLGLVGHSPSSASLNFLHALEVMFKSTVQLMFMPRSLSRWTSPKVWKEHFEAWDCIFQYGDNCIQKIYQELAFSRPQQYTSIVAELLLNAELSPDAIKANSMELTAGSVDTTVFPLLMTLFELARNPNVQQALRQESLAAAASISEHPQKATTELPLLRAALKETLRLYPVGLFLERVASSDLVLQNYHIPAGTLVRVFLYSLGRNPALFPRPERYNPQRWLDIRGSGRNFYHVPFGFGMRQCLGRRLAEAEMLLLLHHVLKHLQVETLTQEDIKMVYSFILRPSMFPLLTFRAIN
Put plainly: IC50 vs CYP11B1 by cortisol synthesis in V79 cells. Format: cell-based. To be noted: V79 cells expressing human CYP11B1, 1500 nM RSS, cortisol HTRF; test concentrations 0.5-10000 nM. Here is the method: Determination of IC50 vs CYP11B1/CYP11B2 by Measurement of Cortisol/Aldosterone Synthesis
This assay was performed in a standard 384-well plate design using cultured V79 cells stably expressing human CYP11B1 or human CYP11B2. Test compounds at 10 concentrations (for example, 10000, 3333.3, 1111.1, 370.4, 123.5, 41.2, 13.7, 4.6, 1.5 and 0.5 nM) were added in 384-well plate after the cell-seeding procedure. The incubation substrate contains 1500 nM RSS for CYP11B1 assay/750 nM DOC for CYP11B2 assay. The
Cortisol/Aldosterone production of cell culture supernatant was determined by Cortisol/Aldosterone HTRF kit after for about 15 hours incubation at RT (protect from light). IC50 values were calculated from the percent inhibition observed for each test compound at 10 concentrations.
The assay plate was read using Envision (Perkin Elmer, Waltham, Mass.) at 665 nm and 590 nm (using Filter Barcode of 217#, 205#; Mirror Barcode of 446#).
Data are analyzed using Assay Data Analyzer. All ratio data (665 nm/590 nm) are back calculated according to the standard curve, resulting in Cortisol/Aldosterone concentrations. IC50 values are reported as the Inflection Point (IP) of a four parameter fit of the titration data.
as §5
% Activity=100×{1−(Sample_back calculated Cortisol/Aldosterone concentration−LC_back calculated Cortisol/Aldosterone concentration)/(HC_back calculated Cortisol/Aldosterone concentration−LC_back calculated Cortisol/Aldosterone concentration)}
On the technique in general: TR-FRET usually uses a lanthanide donor and a delayed reading to cut background.

T2 sequence (P33261 whole entry): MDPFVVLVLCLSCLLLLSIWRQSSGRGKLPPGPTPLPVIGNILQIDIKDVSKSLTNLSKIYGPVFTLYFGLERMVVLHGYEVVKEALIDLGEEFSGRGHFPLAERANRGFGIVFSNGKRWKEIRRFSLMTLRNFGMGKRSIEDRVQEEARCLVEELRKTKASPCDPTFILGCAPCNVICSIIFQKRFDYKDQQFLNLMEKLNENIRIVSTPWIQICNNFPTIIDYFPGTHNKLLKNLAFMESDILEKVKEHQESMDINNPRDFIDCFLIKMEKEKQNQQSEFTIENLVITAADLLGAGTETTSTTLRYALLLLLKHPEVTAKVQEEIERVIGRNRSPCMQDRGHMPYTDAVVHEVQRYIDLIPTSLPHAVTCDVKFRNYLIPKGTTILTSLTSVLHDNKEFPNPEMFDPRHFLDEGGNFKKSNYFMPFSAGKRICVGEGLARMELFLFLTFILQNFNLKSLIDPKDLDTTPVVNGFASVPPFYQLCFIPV
T4 sequence (P11712 whole entry): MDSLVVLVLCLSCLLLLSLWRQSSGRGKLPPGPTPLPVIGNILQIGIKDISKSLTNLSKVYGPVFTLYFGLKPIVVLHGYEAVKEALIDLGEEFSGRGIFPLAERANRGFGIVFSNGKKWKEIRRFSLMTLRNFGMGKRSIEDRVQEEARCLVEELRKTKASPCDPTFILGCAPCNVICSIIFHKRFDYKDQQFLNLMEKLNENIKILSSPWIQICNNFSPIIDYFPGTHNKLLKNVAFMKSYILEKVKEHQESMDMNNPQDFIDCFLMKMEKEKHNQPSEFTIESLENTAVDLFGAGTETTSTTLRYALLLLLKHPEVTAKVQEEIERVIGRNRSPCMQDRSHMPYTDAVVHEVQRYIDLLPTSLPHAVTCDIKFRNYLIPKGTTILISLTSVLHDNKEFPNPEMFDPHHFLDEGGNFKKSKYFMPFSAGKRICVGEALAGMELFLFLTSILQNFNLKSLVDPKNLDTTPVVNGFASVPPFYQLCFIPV
CYP3A4, sequence (P08684 2-503): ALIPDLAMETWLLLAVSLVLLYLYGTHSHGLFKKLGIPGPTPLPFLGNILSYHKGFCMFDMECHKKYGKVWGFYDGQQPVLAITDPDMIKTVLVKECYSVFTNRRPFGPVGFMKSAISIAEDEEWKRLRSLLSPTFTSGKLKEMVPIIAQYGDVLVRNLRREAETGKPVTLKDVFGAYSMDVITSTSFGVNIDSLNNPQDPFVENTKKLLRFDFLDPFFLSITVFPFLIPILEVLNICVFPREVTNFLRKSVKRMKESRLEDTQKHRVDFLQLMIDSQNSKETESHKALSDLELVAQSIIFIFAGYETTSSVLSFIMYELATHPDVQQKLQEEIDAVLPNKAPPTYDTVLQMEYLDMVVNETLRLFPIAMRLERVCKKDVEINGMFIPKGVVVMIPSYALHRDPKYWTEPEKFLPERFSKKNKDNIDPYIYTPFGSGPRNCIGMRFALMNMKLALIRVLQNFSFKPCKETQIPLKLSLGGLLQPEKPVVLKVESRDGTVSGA
T3 sequence (P10635 whole entry): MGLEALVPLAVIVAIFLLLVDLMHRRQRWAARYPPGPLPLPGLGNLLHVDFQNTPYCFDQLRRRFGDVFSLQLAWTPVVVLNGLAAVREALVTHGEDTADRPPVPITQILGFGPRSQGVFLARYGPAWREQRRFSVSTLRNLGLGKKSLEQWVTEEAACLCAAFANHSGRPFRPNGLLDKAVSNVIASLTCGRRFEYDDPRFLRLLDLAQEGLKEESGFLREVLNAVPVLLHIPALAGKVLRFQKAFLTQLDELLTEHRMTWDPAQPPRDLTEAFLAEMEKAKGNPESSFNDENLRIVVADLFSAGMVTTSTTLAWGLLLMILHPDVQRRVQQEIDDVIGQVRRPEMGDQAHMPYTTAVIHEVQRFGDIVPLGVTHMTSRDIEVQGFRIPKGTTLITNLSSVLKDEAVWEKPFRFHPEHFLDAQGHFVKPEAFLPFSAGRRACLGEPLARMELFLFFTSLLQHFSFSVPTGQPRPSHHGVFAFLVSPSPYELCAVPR

In the case of `C[C@H](c1ccc(F)cc1)n1cncc1C1CN(C)CC2CN(S(=O)(=O)c3cnc(Nc4ccccn4)s3)CCN21` (stereo partly drawn) [Compound 41], the IC50 in series [1] was more than 10 µM; in series [3] it was 4.95 µM; in series [4], 2.3 µM; in series [5], 2.26 µM. Moreover, the IC50 at 8 min in series [2] was determined as 0.0021 µM.
With `C[C@H](c1ccc(F)cc1)n1cncc1CN1CCN(S(=O)(=O)c2cnc(N3CC[C@@H]4OCCN[C@H]4C3)s2)CC1` [Compound 14], the IC50 in series [1] is more than 10 µM; in series [3], more than 10 µM; in series [6] it was 1.05 µM; in series [5], 9.76 µM.
Take `C[C@H](c1ccc(F)cc1)n1cncc1C1CC12CCN(S(=O)(=O)c1cnc(N3CCN(C)CC3)s1)CC2` (single isomer, unassigned) [Compound 43a]: the IC50 in series [1] was more than 10 µM; in series [3] it was more than 10 µM; in series [4] it was 2.9 µM; in series [5], more than 10 µM.
For the compound `C[C@H](c1ccc(F)cc1)n1cncc1CN1CCN(S(=O)(=O)c2cnc(N3CC[C@@H]4OCCN[C@H]4C3)s2)CC1` [Compound 13], the IC50 is more than 10 µM in series [1], more than 10 µM in series [3], 1.56 µM in series [6] and 7.41 µM in series [5]. Moreover, in series [2], the IC50 at 8 min was determined as 0.0014 µM.
For `C[C@H](c1ccc(F)cc1)n1cncc1CN1CCN(S(=O)(=O)c2cnc(N3CCC(S(C)(=O)=O)C3)s2)CC1` (stereo partly drawn) [Compound 7], the IC50 was more than 10 µM in series [1]; more than 10 µM in series [3]; 4.09 µM in series [6]; more than 10 µM in series [4]; 3.39 µM in series [5].
On to `COC(c1cncn1[C@H](C)c1ccc(F)cc1)C1CCN(S(=O)(=O)c2cnc(Nc3ccc(C(F)(F)F)cn3)s2)CC1` (single isomer, unassigned) [Compound 45b], for which the IC50 was more than 10 µM in series [1], 4.49 µM in series [3], 7.85 µM in series [4] and 1.45 µM in series [5].
`C[C@H](c1ccc(F)cc1)n1cncc1CC1CCN(S(=O)(=O)c2cnc(N3CCN(C)CC3)s2)CC1` [Compound 44]: the IC50 in series [1] was more than 10 µM; in series [3], 8.39 µM; in series [4] it was 2.41 µM; in series [5], 3.57 µM. In addition, the IC50 at 8 min in series [2] came out at 0.0011 µM.
For `C[C@H](c1ccc(F)cc1)n1cncc1CC1(C#N)CCN(S(=O)(=O)c2cnc(N3CCN(C)CC3)s2)CC1` [Compound 48], in that order: more than 10 µM, 8.06 µM, 2.85 µM, more than 10 µM and 0.0094 µM.
Take `COC(c1cncn1[C@H](C)c1ccc(F)cc1)C1CCN(S(=O)(=O)c2cnc(Nc3ccc(C(F)(F)F)cn3)s2)CC1` (single isomer, unassigned) [Compound 45a]: the IC50 was more than 10 µM in series [1], 1.13 µM in series [3], 5.68 µM in series [4] and 0.336 µM in series [5]. Further, the IC50 at 8 min in series [2] was less than 0.00098 µM.
For the compound `C[C@H](c1ccc(F)cc1)n1cncc1C1CC12CCN(S(=O)(=O)c1cnc(N3CCN(C)CC3)s1)CC2` (single isomer, unassigned) [Compound 43b], the IC50 in series [1] was more than 10 µM; in series [3] it was 9.2 µM; in series [4] it was 3.6 µM; in series [5], more than 10 µM.
With `C[C@H](c1ccc(F)cc1)n1cncc1CC1(CO)CCN(S(=O)(=O)c2cnc(N3CCN(C)CC3)s2)CC1` [Compound 47], the IC50 in series [1] was more than 10 µM; in series [3], more than 10 µM; in series [4], 5.84 µM; in series [5], more than 10 µM. Besides, in series [2], the IC50 at 8 min came to 0.013 µM.
